Source: US9521847B2, “Synergistic weed control from applications of pyridine carboxylic acid herbicides and synthetic auxin herbicides and/or auxin transport inhibitors” (Dow AgroSciences LLC, priority 2014, dated 2016)

Key:
[1] = system: brown mustard (Brassica juncea, BRSJU); assay: Greenhouse postemergence trial, % visual injury; assay type: in vivo; details: 400 g ae/ha alone; 20-22 d
[2] = system: rutabaga (Brassica napus var. napobrassica, BRSNA); assay: Greenhouse postemergence trial, % visual injury; assay type: in vivo; details: 400 g ae/ha alone; 20-22 d
[3] = system: Chinese kale (Brassica alboglabra, BRSAG); assay: Greenhouse postemergence trial, % visual injury; assay type: in vivo; details: 400 g ae/ha alone; 20-22 d
common rice (ORYSA) = assay: Greenhouse postemergence trial, crop phytotoxicity (% visual injury)
[4] = system: ivyleaf morningglory (Ipomoea hederacea, IPOHE); assay: Greenhouse postemergence trial, % visual injury; details: Arylex 2.5 g ae/ha
maize (ZEAMX) = assay: Greenhouse postemergence trial, crop phytotoxicity (% visual injury)
[5] = system: grain sorghum (Sorghum vulgare, SORVU); assay: Greenhouse postemergence trial, % visual injury; assay type: in vivo; details: Arylex 2.5 g ae/ha
[6] = system: turnip (Brassica rapa, BRSRR); assay: Greenhouse postemergence trial, % visual injury; assay type: in vivo
[7] = system: Canadian thistle (CIRAR, Cirsium arvense); assay: Greenhouse postemergence trial, % visual injury;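 also: plants sprayed at second to third true leaf stage, injury scored visually 20-22 d later against solvent-blank sprayed controls, 0 meaning no injury and 100 complete kill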
[8] = system: wild radish (Raphanus raphanistrum, RAPRA); assay: Greenhouse postemergence trial, % visual injury; assay type: in vivo
winter wheat (TRZAW) = assay: Greenhouse postemergence trial, crop phytotoxicity (% visual injury)
[9] = system: Indian hedge mustard (Sisymbrium orientale, SSYOR); assay: Greenhouse postemergence trial, % visual injury; assay type: in vivo
[10] = system: wild mustard (Sinapis arvensis, SINAR); assay: Greenhouse postemergence trial, % visual injury; assay type: in vivo
[11] = system: wild pansy (Viola tricolor, VIOTR); assay: Greenhouse postemergence trial, % visual injury
[12] = system: black mustard (Brassica nigra, BRSNI); assay: Greenhouse postemergence trial, % visual injury; assay type: in vivo
[13] = system: spring rape (Brassica napus, BRSNN); assay: Greenhouse postemergence trial, % visual injury
[14] = system: velvetleaf (Abutilon theophrasti, ABUTH); assay: Greenhouse postemergence trial, % visual injury; assay type: in vivo; details: Abutilon theophrasti, post-emergence, ABUTH, 280 g ae/ha; read-out: % visual injury, Obs
[15] = system: large crabgrass (Digitaria sanguinalis, DIGSA); assay: Greenhouse postemergence trial, % visual injury; assay type: in vivo; details: Digitaria sanguinalis, post-emergence; DIGSA, 280 g ae/ha; read-out: % visual injury, Obs
[16] = system: nutsedge (Cyperus esculentus, CYPES); assay: Greenhouse postemergence trial, % visual injury; assay type: in vivo; details: CYPES, 280 g ae/ha
[17] = system: kochia (KCHSC, Kochia scoparia); assay: Greenhouse postemergence trial, % visual injury; assay type: in vivo; details: Bassia scoparia, post-emergence, KCHSC, 280 g ae/ha; read-out: % visual injury, Obs
Protocol: Following the protocol in Example 1, compound 1 and compound 2 were combined with 2,4 D EHE (EC) and applied to kochia (KCHSC, Kochia scoparia) and the phytotoxicity of the herbicidal compositions was measured.
Following the protocol in Example 1, compound 1 (EC) and Compound 2 (SC) were combined with diflufenzopyr and applied to kochia (Kochia scoparia, KCHSC) and the phytotoxicity of the herbicidal composition was measured.

[18] = system: common chickweed (Stellaria media, STEME); assay: Greenhouse postemergence trial, % visual injury; assay type: in vivo; details: STEME, 280 g ae/ha
[19] = system: barnyardgrass (Echinochloa crus-galli, ECHCG); assay: Greenhouse postemergence trial, % visual injury; assay type: in vivo; details: ECHCG, 280 g ae/ha

O=C(O)COc1ccc(Cl)cc1Cl [2,4-D choline, reference compound]
% visual injury Obs [1]: 90% | % visual injury Obs [2]: 93% | % visual injury Obs [3]: 85%

COC(=O)c1nc(-c2ccc(Cl)c(OC)c2F)cc(N)c1Cl [Arylex ™]
% visual injury (Obs) (common rice (ORYSA); Arylex 2.5 g ae/ha): 0% | % visual injury (Obs) [4]: 10% | % visual injury (Obs) (maize (ZEAMX); Arylex 2.5 g ae/ha): 0% | % visual injury (Obs) [5]: 0% | % visual injury (Obs) ([6]; Arylex 2.5 g ae/ha): 10% | % visual injury (Obs) ([6]; Arylex 5 g ae/ha): 13% | % visual injury (Obs) ([7]; Arylex 2.5 g ae/ha): 50% | % visual injury (Obs) ([8]; Arylex 2.5 g ae/ha): 10% | % visual injury (Obs) ([8]; Arylex 5 g ae/ha): 20% | % visual injury (Obs) (winter wheat (TRZAW); Arylex 2.5 g ae/ha): 0% | % visual injury (Obs) ([9]; Arylex 2.5 g ae/ha): 57% | % visual injury (Obs) ([9]; Arylex 5 g ae/ha): 63% | % visual injury (Obs) ([10]; Arylex 2.5 g ae/ha): 65% | % visual injury (Obs) ([10]; Arylex 5 g ae/ha): 78% | % visual injury (Obs) ([11]; Arylex 2.5 g ae/ha): 15% | % visual injury (Obs) ([11]; Arylex 5 g ae/ha): 20% | % visual injury (Obs) ([12]; Arylex 2.5 g ae/ha): 0% | % visual injury (Obs) ([12]; Arylex 5 g ae/ha): 0% | % visual injury (Obs) ([13]; Arylex 2.5 g ae/ha): 20%

CCCCOCCOC(=O)COc1nc(Cl)c(Cl)cc1Cl [triclopyr-butotyl, reference compound]
% visual injury, Obs (common rice (ORYSA); ORYSA, 280 g ae/ha): 0% | pest or weed control at 280 g/ha [14]: 20% | % visual injury, Obs (maize (ZEAMX); ZEAMX, 280 g ae/ha): 10% | % visual injury, Obs ([7]; CIRAR, 280 g ae/ha): 85% | pest or weed control at 280 g/ha [15]: 0% | % visual injury, Obs (winter wheat (TRZAW); TRZAW, 280 g ae/ha): 15% | % visual injury, Obs [16]: 10% | % visual injury, Obs ([11]; VIOTR, 280 g ae/ha): 65% | plant injury at 280 g/ha ([13]; Brassica napus, post-emergence, read-out: % visual injury, Obs): 80% | pest or weed control at 280 g/ha [17]: 50% | % visual injury, Obs [18]: 20% | % visual injury, Obs [19]: 0%
